Experimental data taken from a melting point compilation (Tetko et al.).

melting point	SMILES
48.5 °C	Clc1ccc(CC(=CCN2CCCC2)c2ccccc2)cc1
179 °C	CC1(C)OC(=O)C(=Cc2ccc(-c3cccc([N+](=O)[O-])c3)o2)C(=O)O1
175 °C	O=C1/C(=N\Nc2ccc(Br)cc2)C(C(F)(F)F)=NN1c1ccccc1
138 °C	COc1ccc2c(c1)N(CC(C)CN1CCC(O)CC1)c1ccccc1S2 (centres undefined)
200 to 202 °C	COc1ccccc1N/N=C(\C#N)c1nc2ccccc2n1C
58 °C	Clc1cccc2cc[nH]c12
132 to 133 °C	Cc1ccc(-n2nc(C)cc2O)cc1
229 °C	C=CCNC(=S)NNC(=O)C(=O)c1c[nH]c2ccccc12
154 °C	O=C(O)Cc1ccc([N+](=O)[O-])cc1
235 °C	O=C1C=C(NCc2ccc([N+](=O)[O-])cc2)C(=O)c2ccccc21
181 °C	CN(C)c1ccc(C=C2C=C(c3ccccc3)OC(c3ccccc3)=C2)cc1
168 to 171 °C	Cc1ccc(C(=O)[C@@H]2CCCC[C@H]2C(=O)O)cc1 (relative stereo)
170 °C	CC(=O)c1nn(-c2cccc(C)c2C)c(=N)s1
216 °C	Nc1c(O)cccc1[N+](=O)[O-]
150 °C	O=C(OCC(=O)N1CCC1C(=O)O)c1ccccc1 (centres undefined)
65 °C	CC(=O)NCc1ccccc1C(c1ccc(C)o1)c1ccc(C)o1
76.5 to 77.5 °C	OCc1ccc(-c2ncccn2)cc1
85 °C	Cc1cccc(C)c1NC(=O)c1cnc(C(C)(C)C)cn1
-45 °C	CCN(CC)C(=O)c1cccc(C)c1

melting point	SMILES
114 °C	CC(C)(C)OC(=O)CN=C(c1ccccc1)c1ccccc1
86 °C	CCC(C(N)=O)c1ccccc1 (centres undefined)
104 °C	COc1cc([N+](=O)[O-])ccc1Br
81 to 83 °C	Cc1ccc(-n2c(C)cc(C(=O)CCl)c2C)cc1
134 °C	COC(=O)C1c2ccccc2C(=O)OC1c1ccc([N+](=O)[O-])cc1 (centres undefined)
-23.5 °C	C/C=C(\C)c1ccccc1
211 °C	CN(C)c1ccc(C2C(C#N)=C(N)SC(N)=C2c2nc3ccccc3s2)cc1 (centres undefined)
144 °C	CC(=O)Oc1cccc(N=Nc2cccc(OC(C)=O)c2)c1
107 to 111 °C	Cn1ccnc1CO
114 to 115 °C	O=[N+]([O-])c1cccc2cccc(/C=N\c3ccccc3)c12
264 °C	COc1ccc(C2C(C#N)=C(N)Oc3cc(C)n(CCc4ccccc4)c(=O)c32)cc1 (centres undefined)
230 °C	Cc1cc(C(=O)O)c(C)n1-c1ccc(Cl)cc1
202 to 203 °C	O=Cc1c[nH]c2cc(Br)ccc12
40.5 °C	CN(C)C(=O)SCCCCOc1ccccc1
118 to 121 °C	O=C(O)[C@H](O)c1ccccc1Cl
118 to 119 °C	COc1ccc(NC(=O)CS)cc1
51 to 55 °C	Cc1onc(-c2ccc(F)cc2)c1C(=O)Cl
52 °C	C1=NN(c2ccccc2)CC1
168 to 169 °C	O=c1cc(-c2ccc(F)cc2)oc(-c2ccc(F)cc2)c1

melting point	SMILES
47 °C	O=Cc1ccccc1OCc1ccccc1
47 °C	Cc1ccc(Br)cc1[N+](=O)[O-]
160 to 166 °C	N[C@H](CO)[C@H](O)c1ccc([N+](=O)[O-])cc1
144 to 145 °C	O=Cc1nc2ccccc2c2ncccc12
150 °C	O=C(NC(CO)C(O)c1ccc([N+](=O)[O-])cc1)C(Cl)Cl (centres undefined)
90 to 92 °C	C=CCOc1ccc(NC(C)=O)cc1
168 °C	O=C(O)c1cc(-c2cccs2)on1
81 to 83 °C	BrCc1ccc(-n2cccn2)cc1
112 °C	C/C(=N/NC(N)=O)C(C)Cc1ccccc1 (centres undefined)
203 °C	CC12C=CC=CC1NC(=C1C(=O)c3ccccc3C1=O)C=C2 (centres undefined)
106 °C	CN1CCN(C(c2ccccc2)c2ccccc2)CC1
158 °C	O=C(/C=C/c1ccccc1)Oc1ccc(/C=C/C(=O)c2ccccc2)cc1
58 °C	Fc1cc(I)ccn1
109 °C	Cc1cccc2ccoc12
136 °C	O=P(N1CC1)(N1CC1)N(N=Cc1ccc(Cl)cc1)c1ccccc1
146 to 151 °C	CC(C)(C)OC(=O)C=P(c1ccccc1)(c1ccccc1)c1ccccc1
190 to 192 °C	CCOc1cccc2cc(C(=O)O)c(=O)oc12
80 °C	OCCN(CCO)CCc1ccc(CSc2ccccc2)cc1

More lines, now with the values behind:

SMILES	melting point
Nc1nc(N)c2nc[nH]c2n1	302 °C
CCC1(C2=CCCCCC2)C(=O)NC(=O)NC1=O	174 °C
COc1c(CC(O)C(C)C)c(=O)n(C)c2c(OC)cccc12 (centres undefined)	86.5 °C
CCC1CC(N)(C(=O)O)CC(C)(C)N1O (centres undefined)	230 °C
O=Cc1cc([N+](=O)[O-])ccc1F	58 °C
NS(=O)(=O)c1ccc(F)cc1C(F)(F)F	167 °C
CN1CCN(c2cccc(N)c2)CC1	98 to 99 °C
Cc1ccc(N)cc1[N+](=O)[O-]	76.5 °C
CC(=O)N(CC(O)CO)c1c(I)c(C(=O)NCC(O)CO)c(I)c(C(=O)NCC(O)CO)c1I (centres undefined)	177 °C
N#CC1C(=S)NC2(C(=O)Nc3ccccc32)C2=C1CCC2 (centres undefined)	311 °C
Cc1csc(C(=O)O)c1	124 to 125 °C
Cc1nccc2c1[nH]c1ccccc12	236 °C
COC(=O)c1c(-c2c(Cl)cccc2Cl)noc1C	115 °C
O=C(Cl)c1ccc2nonc2c1	55 to 58 °C
NCc1cc(=O)[nH]o1	175 °C
O=[N+]([O-])c1ccccc1C=Cc1cc(/C=C/c2ccccc2[N+](=O)[O-])c([N+](=O)[O-])cc1[N+](=O)[O-]	291 °C
CC1CCC(C(C)C)/C(=N\NC(N)=O)C1 (centres undefined)	216 to 217 °C
Nc1cc(Cl)c(Cl)cc1N	162 to 163 °C
Nc1c([N+](=O)[O-])cc(F)c(F)c1F	46 to 48 °C
CCCF	-159 °C
Cc1cc2c(cc1C)CCCC2	10 °C
CCC1NC(=O)c2cc(S(N)(=O)=O)c(Cl)cc2N1 (centres undefined)	251 °C
COC(=O)c1cc(C)n(C)c1C	117 °C
O=C(O)c1ccnnc1	237 to 240 °C
Cc1c(C)c(C)c2c(c1C)CCC2=O	154 °C

SMILES	melting point
COC1C(O)C(O)C(O)C(O)C1O (single isomer, unassigned; (-))	190 to 198 °C
CCOC(=O)c1cc(C)on1	29 °C
BrCC(CBr)CBr	-32 °C
NC(=O)[C@@H]1CCCN1	97 to 102 °C
COc1ccc2c(c1)C(=O)CC2	107 to 111 °C
CCCC(O)CC(C)C (centres undefined)	-81 °C
CC(=O)OC1CCC2(C)C3CCC4=C(CCC4(C)C#CCl)C3CCC2(C)C1 (centres undefined)	109 to 110 °C
CC1=C(O)C(=O)C2OC2C1=O (centres undefined)	127 °C
CC(=O)Nc1ccc(C(F)(F)F)cc1N	141 to 143 °C
ClC1=C(Cl)C2(Cl)C3C4C=CC(C4)C3C1(Cl)C2(Cl)Cl (centres undefined)	240 °C
CC12CCC3C(CCC4CCCCC43C)C1CCC2O (centres undefined)	166 °C
C=CCn1c(S)nnc1CNC(=O)OC(C)(C)C	150 to 153 °C
CCCCCC(O)CC (racemic)	-16 °C
O=Cc1cc(Cl)ccc1[N+](=O)[O-]	75 to 77 °C
COc1cc(C2c3cc4c(c(O)c3CC3COC(=O)C32)OCO4)cc(OC)c1OC (centres undefined)	234 °C
Cc1c2c(c(C)c3c1CC3=O)C(=O)C2	188 °C
NNc1ccc(Cl)cc1[N+](=O)[O-]	134 °C
Nc1c(OC2C=CC(N3CCCCCC3=O)=CC2)cc(O)c2c1C(=O)c1ccccc1C2=O (centres undefined)	164 °C
ClC1=C(Cl)C(Cl)(Cl)C(Cl)(Cl)C1(Cl)Cl	40 °C
CCNc1nc(Cl)nc(NC(C)(C)C)n1	178 °C
Cc1cc(Br)c(OCC(=O)NN)c2c1CCC2	69 to 70 °C
Cc1cn(C2CC(F)C(CO)O2)c(=O)[nH]c1=O (centres undefined)	177 °C
CCCc1c(C)nc(NC(=O)NS(=O)(=O)c2cccs2)nc1O	210 to 212 °C
COC1(OC)C2C=CC(C)(O2)C1C(=O)O (centres undefined)	176 to 178 °C
FC(F)(F)c1nnc(S)n1/N=C/c1ccc2c(c1)OCO2	221 °C

SMILES	melting point
O=C(O)C1(C(=O)O)CCC1	157 to 161 °C
Cc1ccc(C(=O)O)cc1F	170 to 175 °C
O=[N+]([O-])c1ccc(C=Cc2cccc(/C=C\c3ccc([N+](=O)[O-])cc3[N+](=O)[O-])c2)c([N+](=O)[O-])c1	243 °C
BrC12CC3CC(CC(C3)C1)C2	119 °C
CCN(CC)CCOC(=O)C(O)(c1ccccc1)c1ccccc1	51 °C
Cn1cc(Br)c(C(=O)Cl)n1	131 to 133 °C
Cc1cc(C)c(O)c([N+](=O)[O-])c1	70 °C
NC(=O)C=CC(F)(F)F	147 to 150 °C
Cc1cc(C(C)(C)C)cc(C)c1O	82.4 °C
C=CCCCCCCCCC	-49.2 °C
COc1c(C)cc2c(c1C)CC2=O	51 °C
O=[N+]([O-])c1ccc(N2CCCNCC2)nc1	111 to 112 °C
COc1ccc(OC)c(N=C=S)c1	36 °C
CCCCCOC(=O)CCC(=O)OCCCCC	-10.8 °C
NNC(=S)NCCN1CCCCC1	121 to 123 °C
CS(=O)(=O)c1ccc(C(C=O)C=O)c([N+](=O)[O-])c1	213 to 219 °C
Cc1cc(N)n(C)n1	75 °C
COC(=O)CCCCCCC(=O)OC	-3.1 °C
CC12CCC(=O)C=C1CCC1C2CCC2(C)CCCC12O (centres undefined)	180 °C
O=C1C(Cl)=C(Cl)C(=O)c2ccccc21	195 °C
Cc1cc(C)nc(Cl)n1	34 to 36 °C
CNC(N)=S	120 °C
O=C1NC(=O)C([N+](=O)[O-])C(=O)N1	180 °C
